Results taken from patent US20170246227A1, “COMBINATION COMPRISING SPIRULINA AND PALMITOYLETHANOLAMIDE AND/OR SALTS OR PHARMACEUTICALLY ACCEPTABLE DERIVATIVES THEREOF AND THEIR FORMULATIONS, FOR USE IN THE PREVENTION AND/OR IN THE TREATMENT OF HYPERACTIVATED TISSUE CONDITIONS” (priority 2014, published 2017).

Experiments:
Type in all cases: in vivo, human
[1] = Fasting glycaemia at beginning and end of the diabetic peripheral neuropathy study; details: 1 patient each, 35 days, on oral hypoglycaemic agents; combination 35% spirulina, 65% PEA
Method: In the study, three patients were treated, comprising both men and women who suffered from peripheral neuropathy of diabetic origin. All the patients presented the classic symptoms of peripheral neuropathy, i.e. the classic symptoms consisting of paraesthesias, the sensation of ‘walking on cotton wool’, insensitivity to heat and/or cold, etc., and all the patients were undergoing specific treatments to control glycaemic values, in particular oral hypoglycaemic agents. The patients' glycaemia was tested, both at the beginning and the end of the study, to see if taking the product influenced glycaemic control in any way. […]

[2] = tested on: patients suffering from tinnitus; test: Clinical study of spirulina, PEA and their combination in the treatment of tinnitus; details: 2 patients per group, oral tablets 2x2/day for 5 days then 1x2/day for 10 days; PEA 350 mg and/or spirulina 650 mg per tablet; combination 65% spirulina, 35% PEA
Method: A clinical study was performed to test the synergistic effect of the combination of spirulina (used as dry extract) and palmitoylethanolamide (PEA) in the treatment of tinnitus.
In the study, six patients were treated, comprising both men and women, with a mean age of 49.6 years (person, person, person, person, person, […] women), who had been suffering from tinnitus for at least one year. […]
The improvements regarding the tinnitus were declared by patients, while the improvement in hearing was measured via an audiometric test, carried out before and after administration of the combination in the invention. […]

[3] = tested on: diabetic patients with altered renal functions; test: Clinical study in altered renal functions in diabetics: creatinine value at beginning and end
Method: A clinical study was performed to test the synergistic effect of the combination of spirulina (used as dry extract) and PEA in the treatment of altered renal functions, preferably in diabetics.
In the study, three patients were treated, comprising both men and women who suffered from diabetes. All patients presented altered renal functions, evidenced by the creatinine value, i.e. a creatinine value of over 4 mg/dl (normal values range from 0.7 to 1.3 mg/dl). All the patients were undergoing specific treatments (conventional drugs, such as Decadurabolin, etc.) which, nevertheless, were unable to control the renal dysfunction. The patients' creatinine values were tested, both at the beginning and the end of the clinical study assessment.
In accordance with the present invention, the patients were treated according to the following schema: • the first patient was treated with a tablet comprising 650 mg of PEA, administered four times a day, for a daily total of 2,600 mg of PEA, for a duration of 5 days; next, the same patient was treated with one tablet, comprising 650 mg of PEA, administered twice a day, for a daily total of 1,300 mg of PEA, for a duration of 30 days; • the second patient was treated with a tablet comprising 350 mg of spirulina, administered four times a day, for a daily total of 1,400 mg of spirulina, for a duration of 5 days; next, the same patient was treated with one tablet, comprising 350 mg of spirulina, administered twice a day, for a daily total of 700 mg of spirulina, for a duration of 30 days; • next, the third patient was treated with one tablet, comprising 350 mg of spirulina and 650 mg of PEA, administered four times a day, for a daily total of 1,400 mg of spirulina combined with 2,600 mg of PEA, for a duration of 5 days; next, the same patient was treated with one tablet, comprising 350 mg of spirulina and 650 mg of PEA, administered twice a day, for a daily total of 700 mg of spirulina combined with 1,300 mg of PEA, for a duration of 30 days.

[4] = tested on: patients suffering from age-related macular degeneration; test: Clinical study in senile macular degeneration, Amsler test before and after treatment; details: 1 patient each, tablet 4x/day for 10 days then 2x/day for 30 days; PEA 450 mg and/or spirulina 550 mg per tablet; combination 55% spirulina, 45% PEA
Method: A clinical study was performed to test the synergistic effect of the combination of spirulina (used as dry extract) and PEA in the treatment of senile macular degeneration.
In the study, three patients were treated, comprising both men and women, who were suffering from age-related macular degeneration with the presence of macular drusen, i.e. localised deposits between the retinal pigment epithelium (RPE) and the Bruch membrane, together with geographic atrophy, characterised by RPE cell death and atrophy of the overlying photoreceptors.
All the patients underwent an assessment with the Amsler test, prior to administration of the combination of spirulina and PEA. All three patients presented macular degeneration with distortion (metamorphopsia) or line breaks with an average degree of macular degeneration. […]

[5] = tested on: patients with peripheral neuropathy of diabetic origin; test: Clinical study in diabetic peripheral neuropathy: nerve conduction by neurological tuning fork, biothesiometer and Achilles reflex; details: 1 patient each, combination 35% spirulina, 65% PEA
Method: A clinical study was performed to test the synergistic effect of the combination of spirulina (used as dry extract) and PEA in the treatment of peripheral neuropathy in diabetics.
In the study, three patients were treated, comprising both men and women who suffered from peripheral neuropathy of diabetic origin. All the patients presented the classic symptoms of peripheral neuropathy, i.e. the classic symptoms consisting of paraesthesias, the sensation of ‘walking on cotton wool’, insensitivity to heat and/or cold, etc., and all the patients were undergoing specific treatments to control glycaemic values, in particular oral hypoglycaemic agents. The patients' glycaemia was tested, both at the beginning and the end of the study, to see if taking the product influenced glycaemic control in any way. All the patients had mean fasting glycaemia values of approximately 140 to 165 mg/dl. […]

[6] = tested on: patients with praecordial pain of cardiac origin (angina pectoris); test: Clinical study in angina pectoris (chest pain), stress ECG; details: 1 patient each, PEA 300 mg and/or spirulina 700 mg per tablet, combination 70% spirulina, 30% PEA
Method: A clinical study was performed to test the synergistic effect of the combination of spirulina (used as dry extract) and PEA in the treatment of angina pectoris (chest pain).
In the study, three patients were treated, comprising both men and women who suffered from praecordial pain of cardiac origin. Upon undergoing a stress ECG, all the patients presented anginal pain during the stress and all were undergoing specific treatments (antihypertensives, beta blockers), which—nevertheless—were unable to fully control the aforesaid symptoms. […]

With CCCCCCCCCCCCCCCC(=O)NCCO [PEA, Palmitoylethanolamide] the glycaemic profile [1] was “without any influence on the glycaemic profile”, the “change in tinnitus perceived (declared by patients)” value [2] was “neither the two patients treated with PEA, nor the two patients treated with spirulina showed variations in the tinnitus” and the renal functions ([3]; 1 diabetic patient each, tablet 4x/day for 5 days then 2x/day for 30 days, PEA 650 mg and/or spirulina 350 mg per tablet, combination 35% spirulina, 65% PEA) was “no improvement in renal functions”. For the same compound, the “creatinine value at the end of the treatment” value ([3]; after 35 days, normal values 0.7 to 1.3 mg/dl, combination 35% spirulina, 65% PEA) was 4.4 mg/dL, the “creatinine value at the beginning of the treatment” value ([3]; baseline of the treated patient, normal values 0.7 to 1.3 mg/dl) was 4.3 mg/dL and the “Amsler test result after treatment” value [4] was “slight improvement in the Amsler test result”. For the same compound, the “nerve conduction assessed with tuning fork and biothesiometer” value ([5]; 35 days) was “slight response to the biothesiometry test”, the “neuropathic symptoms / condition” value ([5]; tablet 4x/day for 5 days then 2x/day for 30 days, PEA 650 mg and/or spirulina 350 mg per tablet) was “slight improvement in the neuropathic symptoms” and the “praecordial pain of cardiac origin when stress was increased during the stress ECG” value ([6]; 45 days) was “presented praecordial pain of cardiac origin”. For the same compound, the “change in condition / capacity to endure the stress ECG versus before administration” value ([6]; tablet 4x/day for 15 days then 2x/day for 30 days, added to treatments already underway) was “no significant changes in condition”.
